Results reported in ChEMBL document CHEMBL4732026, “Benzimidazole-1,2,3-triazole hybrid molecules: synthesis and study of their interaction with G-quadruplex DNA” (RSC Med Chem, 2021).
Active and inactive are the calls of the source. No cut-off for these calls is given here.

What was measured:
PC-3 [1] = test: Cytotoxicity against human PC3 cells assessed as reduction in cell viability measured after 72 hrs by MTT assay; assay type: functional, cell-based; conditions: PC-3, 72 h
B16-F10 = test: Cytotoxicity against mouse B16-F10 cells assessed as reduction in cell viability measured after 72 hrs by MTT assay; assay type: functional, cell-based; conditions: B16-F10, 72 h
CHO-K1 [2] = test: Cytotoxicity against […] cells assessed as reduction in cell viability measured after 72 hrs by MTT assay; assay type: cell-based; conditions: Cricetulus griseus, CHO-K1, 72 h
Quadruplex DNA [3] = test: Binding affinity to c-Myc G-quadruplex DNA (unknown origin) assessed as dissociation constant incubated for 5 mins by UV- vis spectrophotometric analysis; assay type: nucleic-acid assay
Quadruplex DNA [4] = test: Binding affinity to Tel Q G-quadruplex DNA (unknown origin) assessed as dissociation constant incubated for 5 mins by UV- vis spectrophotometric analysis; assay type: nucleic-acid assay
dsDNA [5] = test: Binding affinity to double strand DNA (unknown origin) assessed as dissociation constant incubated for 5 mins by UV- vis spectrophotometric analysis; assay type: nucleic-acid assay
Quadruplex DNA [6] = test: Binding affinity to Tel Q G-quadruplex DNA (unknown origin) assessed as hypsochromic shift at 10.3 uM incubated for 5 mins by UV- vis spectrophotometric analysis; assay type: nucleic-acid assay
Quadruplex DNA [7] = test: Binding affinity to c-Myc G-quadruplex DNA (unknown origin) assessed as hypsochromic shift at 10.3 uM incubated for 5 mins by UV- vis spectrophotometric analysis; assay type: nucleic-acid assay
dsDNA [8] = test: Binding affinity to double strand DNA (unknown origin) assessed as hypsochromic shift at 10.3 uM incubated for 5 mins by UV- vis spectrophotometric analysis; assay type: nucleic-acid assay
Quadruplex DNA [9] = test: Binding affinity to Tel Q G-quadruplex DNA (unknown origin) assessed as hyperchromicity at 10.3 uM incubated for 5 mins by UV- vis spectrophotometric analysis; assay type: nucleic-acid assay
Quadruplex DNA [10] = test: Binding affinity to c-Myc G-quadruplex DNA (unknown origin) assessed as hyperchromicity at 10.3 uM incubated for 5 mins by UV- vis spectrophotometric analysis; assay type: nucleic-acid assay
dsDNA [11] = test: Binding affinity to double strand DNA (unknown origin) assessed as hyperchromicity at 10.3 uM incubated for 5 mins by UV- vis spectrophotometric analysis; assay type: nucleic-acid assay
Quadruplex DNA [12] = test: Stabilization of Tel Q G-quadruplex DNA (unknown origin) assessed as change in melting temperature at 10.3 uM incubated for 5 mins by UV-visible thermal denaturation study; assay type: nucleic-acid assay
Quadruplex DNA [13] = test: Stabilization of c-Myc G-quadruplex DNA (unknown origin) assessed as change in melting temperature at 10.3 uM incubated for 5 mins by UV-visible thermal denaturation study; assay type: nucleic-acid assay
dsDNA [14] = test: Stabilization of double strand DNA (unknown origin) assessed as change in melting temperature at 10.3 uM incubated for 5 mins by UV-visible thermal denaturation study; assay type: nucleic-acid assay
Quadruplex DNA [15] = test: Binding affinity to Tel Q G-quadruplex DNA (unknown origin) assessed as increase in fluorescence intensity at 10.3 uM incubated for 5 mins by spectrofluorometric analysis; assay type: nucleic-acid assay
Quadruplex DNA [16] = test: Binding affinity to c-Myc G-quadruplex DNA (unknown origin) assessed as increase in fluorescence intensity at 10.3 uM incubated for 5 mins by spectrofluorometric analysis; assay type: nucleic-acid assay
dsDNA [17] = test: Binding affinity to double strand DNA (unknown origin) assessed as increase in fluorescence intensity at 10.3 uM incubated for 5 mins by spectrofluorometric analysis; assay type: nucleic-acid assay
Quadruplex DNA [18] = test: Binding affinity to Tel Q G-quadruplex DNA (unknown origin) assessed as increase in fluorescence intensity at 8.5 uM incubated for 5 mins by spectrofluorometric analysis; assay type: nucleic-acid assay
Quadruplex DNA [19] = test: Binding affinity to c-Myc G-quadruplex DNA (unknown origin) assessed as increase in fluorescence intensity at 8.5 uM incubated for 5 mins by spectrofluorometric analysis; assay type: nucleic-acid assay
dsDNA [20] = test: Binding affinity to double strand DNA (unknown origin) assessed as increase in fluorescence intensity at 8.5 uM incubated for 5 mins by spectrofluorometric analysis; assay type: nucleic-acid assay
PC-3 [21] = test: Induction of apoptosis in human PC-3 cells assessed as viable cells at 91 uM after 48 hrs by Annexin V based flow cytometric analysis (reference value: 89.57%); assay type: functional; conditions: read-out: Activity
PC-3 [22] = test: Induction of apoptosis in human PC-3 cells assessed as necrotic cells at 91 uM after 48 hrs by Annexin V based flow cytometric analysis (reference value: 0.79%); assay type: functional
PC-3 [23] = test: Induction of apoptosis in human PC-3 cells assessed as late apoptic cells at 91 uM after 48 hrs by Annexin V based flow cytometric analysis (reference value: 9.24%); assay type: functional
PC-3 [24] = test: Induction of apoptosis in human PC-3 cells assessed as early apoptic cells at 91 uM after 48 hrs by Annexin V based flow cytometric analysis (reference value: 0.40%); assay type: functional
PC-3 [25] = test: Induction of apoptosis in human PC-3 cells assessed as apoptotic cells at 91 uM incubated for 48 hrs by AnnexinV based flow cytometric analysis (reference value: 10.43%); assay type: functional
PC-3 [26] = test: Induction of apoptosis in human PC-3 cells assessed as viable cells at 98 uM after 48 hrs by Annexin V based flow cytometric analysis (reference value: 89.57%); assay type: functional; conditions: read-out: Activity
PC-3 [27] = test: Induction of apoptosis in human PC-3 cells assessed as necrotic cells at 98 uM after 48 hrs by Annexin V based flow cytometric analysis (reference value: 0.79%); assay type: functional
PC-3 [28] = test: Induction of apoptosis in human PC-3 cells assessed as late apoptic cells at 98 uM after 48 hrs by Annexin V based flow cytometric analysis (reference value: 9.24%); assay type: functional
PC-3 [29] = test: Induction of apoptosis in human PC-3 cells assessed as early apoptic cells at 98 uM after 48 hrs by Annexin V based flow cytometric analysis (reference value: 0.40%); assay type: functional
PC-3 [30] = test: Induction of apoptosis in human PC-3 cells assessed as apoptotic cells at 98 uM incubated for 48 hrs by AnnexinV based flow cytometric analysis (reference value: 10.43%); assay type: functional
[31] = Induction of apoptosis in CHO-K1 cells assessed as viable cells at 60 uM after 48 hrs by Annexin V based flow cytometric analysis (reference value: 93.71%); assay type: cell-based, Cricetulus griseus; conditions: chinese hamster, read-out: Activity
CHO-K1 [32] = test: Induction of apoptosis in CHO-K1 cells assessed as necrotic cells at 60 uM after 48 hrs by Annexin V based flow cytometric analysis (reference value: 0.70%); assay type: cell-based, Cricetulus griseus; conditions: chinese hamster, cho-k1, 48 h
CHO-K1 [33] = test: Induction of apoptosis in CHO-K1 cells assessed as early apoptic cells at 60 uM after 48 hrs by Annexin V based flow cytometric analysis (reference value: 4.58%); assay type: cell-based, Cricetulus griseus; conditions: chinese hamster, cho-k1, 48 h
CHO-K1 [34] = test: Induction of apoptosis in CHO-K1 cells assessed as late apoptic cells at 60 uM after 48 hrs by Annexin V based flow cytometric analysis (reference value: 1.01%); assay type: cell-based, Cricetulus griseus; conditions: chinese hamster, cho-k1, 48 h
CHO-K1 [35] = test: Induction of apoptosis in CHO-K1 cells assessed as apoptic cells at 60 uM after 48 hrs by Annexin V based flow cytometric analysis (reference value: 6.29%); assay type: cell-based, Cricetulus griseus; conditions: chinese hamster, cho-k1, 48 h
[36] = Induction of apoptosis in CHO-K1 cells assessed as viable cells at 63 uM after 48 hrs by Annexin V based flow cytometric analysis (reference value: 93.71%); assay type: cell-based, Cricetulus griseus; conditions: chinese hamster, read-out: Activity
CHO-K1 [37] = test: Induction of apoptosis in CHO-K1 cells assessed as necrotic cells at 63 uM after 48 hrs by Annexin V based flow cytometric analysis (reference value: 0.70%); assay type: cell-based, Cricetulus griseus; conditions: chinese hamster, cho-k1, 48 h
CHO-K1 [38] = test: Induction of apoptosis in CHO-K1 cells assessed as early apoptic cells at 63 uM after 48 hrs by Annexin V based flow cytometric analysis (reference value: 4.58%); assay type: cell-based, Cricetulus griseus; conditions: chinese hamster, cho-k1, 48 h
CHO-K1 [39] = test: Induction of apoptosis in CHO-K1 cells assessed as late apoptic cells at 63 uM after 48 hrs by Annexin V based flow cytometric analysis (reference value: 1.01%); assay type: cell-based, Cricetulus griseus; conditions: chinese hamster, cho-k1, 48 h
CHO-K1 [40] = test: Induction of apoptosis in CHO-K1 cells assessed as apoptic cells at 63 uM after 48 hrs by Annexin V based flow cytometric analysis (reference value: 6.29%); assay type: cell-based, Cricetulus griseus; conditions: chinese hamster, cho-k1, 48 h
CHO-K1 [41] = test: Induction of reactive oxygen species generation in CHO-K1 cells after 48 hrs by DCFH-DA staining based flow cytometeric analysis; assay type: cell-based, Cricetulus griseus; conditions: chinese hamster, cho-k1, 48 h

O=[N+]([O-])c1ccc(-n2cc(CSc3nc4cc(OC(F)F)ccc4[nH]3)nn2)cc1
IC50 (PC-3 [1]): 59.2 µM
IC50 (B16-F10): 203 µM
IC50 (CHO-K1 [2]): 100 µM
Kd (Quadruplex DNA [3]): 79.2 µM
Kd (Quadruplex DNA [4]): 87.3 µM
Kd (dsDNA [5]): 191 µM
Activity (Quadruplex DNA [6]): 2.9 nm
Activity (Quadruplex DNA [7]): 0.6 nm
Activity (dsDNA [8]): 1.6 nm
Activity (Quadruplex DNA [9]): 31.4%
Activity (Quadruplex DNA [10]): 11.7%
Activity (dsDNA [11]): 15.9%
ΔTm (Quadruplex DNA [12]): 9 °C
ΔTm (Quadruplex DNA [13]): -5 °C
ΔTm (dsDNA [14]): 0 °C
Activity (Quadruplex DNA [15]): Active
Activity (Quadruplex DNA [16]): Active
Activity (dsDNA [17]): Active
Activity (Quadruplex DNA [18]): Active
Activity (Quadruplex DNA [19]): Active
Activity (dsDNA [20]): Active

C[n+]1ccc(-c2c3nc(c(-c4cc[n+](C)cc4)c4ccc([nH]4)c(-c4cc[n+](C)cc4)c4ccc([nH]4)c(-c4cc[n+](C)cc4)c4nc2C=C4)C=C3)cc1 [TMPYP4]
IC50 (PC-3 [1]): 94.8 µM
IC50 (B16-F10): 77 µM
IC50 (CHO-K1 [2]): 61.4 µM
viability at 91 µM (PC-3 [21]): 75.2%
Activity (PC-3 [22]): 2.38%
Activity (PC-3 [23]): 18.01%
Activity (PC-3 [24]): 4.41%
Activity (PC-3 [25]): 24.8%
viability at 98 µM (PC-3 [26]): 51.3%
Activity (PC-3 [27]): 14.36%
Activity (PC-3 [28]): 33.44%
Activity (PC-3 [29]): 0.9%
Activity (PC-3 [30]): 48.7%
viability at 48 h, 60 µM [31]: 81.9%
Activity (CHO-K1 [32]): 0.95%
Activity (CHO-K1 [33]): 13.72%
Activity (CHO-K1 [34]): 3.39%
Activity (CHO-K1 [35]): 18.06%
viability at 48 h, 63 µM [36]: 75.2%
Activity (CHO-K1 [37]): 1.31%
Activity (CHO-K1 [38]): 18.87%
Activity (CHO-K1 [39]): 4.66%
Activity (CHO-K1 [40]): 24.84%
Activity (CHO-K1 [41]): Non-Toxic

O=C(Cn1cc(CSc2nc3cc(OC(F)F)ccc3[nH]2)nn1)Nc1cccc(Cl)c1
IC50 (PC-3 [1]): 136 µM
IC50 (B16-F10): 135 µM
IC50 (CHO-K1 [2]): 115 µM

FC(F)Oc1ccc2[nH]c(SCc3cn(-c4cccc(Cl)c4Cl)nn3)nc2c1
IC50 (PC-3 [1]): 69.8 µM
IC50 (B16-F10): 90.5 µM
IC50 (CHO-K1 [2]): 85 µM

Cc1c(NC(=O)Cn2cc(CSc3nc4cc(OC(F)F)ccc4[nH]3)nn2)cccc1[N+](=O)[O-]
IC50 (PC-3 [1]): 66.2 µM
IC50 (B16-F10): 103 µM
IC50 (CHO-K1 [2]): 62.2 µM

Fc1ccc(-n2cc(CSc3nc4cc(OC(F)F)ccc4[nH]3)nn2)cc1F
IC50 (PC-3 [1]): 65.2 µM
IC50 (B16-F10): 56.8 µM
IC50 (CHO-K1 [2]): 56.1 µM
